# From patent US8293917B2, “Pyrazole compounds as CCR1 antagonists” (Boehringer Ingelheim International GmbH, priority 2008, dated 2012)
# Target: T1, CCR1 (Homo sapiens, UniProt P32246)
# T1 construct: host or cells: non-adherent cells
# T1 sequence (P32246 1-355): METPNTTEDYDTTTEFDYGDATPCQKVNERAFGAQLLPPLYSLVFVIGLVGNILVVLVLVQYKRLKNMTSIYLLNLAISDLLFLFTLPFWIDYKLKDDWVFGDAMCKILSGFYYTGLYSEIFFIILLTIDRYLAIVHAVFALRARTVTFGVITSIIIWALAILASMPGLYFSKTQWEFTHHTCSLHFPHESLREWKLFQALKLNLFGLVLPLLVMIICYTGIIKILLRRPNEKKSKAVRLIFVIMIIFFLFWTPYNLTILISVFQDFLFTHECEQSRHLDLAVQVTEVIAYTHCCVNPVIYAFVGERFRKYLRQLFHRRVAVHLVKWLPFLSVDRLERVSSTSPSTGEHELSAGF
# Experiment: functional cellular assay measuring calcium flux in response to MIP1α in CCR1-transfected cells (Method A or Method B)
# Type: cell-based
# Conditions: cells stably expressing recombinant CCR1 and G-alpha-16; MIP-1alpha added at EC80; method (A: FLIPR TETRA, B: FDSS6000) not stated per compound
# Protocol: Compounds are assessed for the ability to block the interaction of CCR1 and its ligands in a functional cellular assay measuring calcium flux in response to MIP1α in CCR1-transfected cells.
# Method A: Non-adherent cells purchased from Chemicon Corporation (HTS005C), stably expressing recombinant CCR1 and G-alpha-16 are grown in RPMI 1640 medium (Mediatech 10-080-CM) supplemented with 10% heat-inactivated FBS, 0.4 mg/mL Geneticin and penicillin/streptomycin. On the day of the assay, the cells are transferred to a beaker and dye-loaded in bulk using a Fluo-4 NW Calcium Assay Kit with probenecid (Invitrogen F36205) at 0.8E6 cells/mL for 1 hour at room temperature. After 1 hour, they are seeded in a 384-well tissue culture-treated plate at a density of 20,000 cells/well. Appropriately diluted test compound is added to the well to achieve a top concentration of 3,000 nM (diluted 3-fold with 10 doses total). The final concentration of DMSO is 1%. The buffer is HBSS (Invitrogen 14025) with 20 mM HEPES at pH 7.4. The cells are allowed to incubate 1 hour in the dark at room temperature. The plates are transferred to the FLIPR TETRA where MIP-1alpha in 1% BSA is added at the EC80 final concentration. Wells +/−MIP-1alpha containing diluted DMSO instead of compound serve as the controls. Intracellular calcium flux is recorded on the FLIPR TETRA, using excitation at 470/495 nm and emission at 515/575 nm. Data are analyzed using Activity Base software.
# Method B: Non-adherent cells purchased from Chemicon Corporation (HTS005C), stably expressing recombinant CCR1 and G-alpha-16 are grown in RPMI 1640 medium (Mediatech 10-080-CM) supplemented with 10% FBS, 0.4 mg/mL Geneticin and penicillin/streptomycin. On the day of the assay, the cells are loaded with Calcium 4 dye (Molecular Devices R7448) with Probenecid (Invitrogen P346400) at 8E5 cells/mL for 1 hour at room temperature. After 1 hour, they are seeded in a 384-well tissue culture-treated plate at a density of 20,000 cells/well. Appropriately diluted test compound is added to the well to achieve a top concentration of 3,000 nM (diluted 4-fold with 10 doses total). The final concentration of DMSO is 1%. The buffer is HBSS (Invitrogen 14025) with 20 mM HEPES at pH 7.4. The cells incubate 30 minutes at 37 C and then 30 minutes at room temperature. The plates are transferred to the HAMAMATSU FDSS6000 where MIP-1alpha in 1% BSA is added at the EC80 final concentration. All plates must be read within 4 hours of the start of dye-loading. Wells +/−MIP-1alpha containing diluted DMSO instead of compound serve as the controls. Data are analyzed using Activity Base software.
row,SMILES,IC50
1,CCC[C@H](NC(=O)c1cnn(-c2ccc(Cl)cc2)c1CN)c1cccc(C(F)(F)F)c1 [5-Aminomethyl-1-(4-chloro-phenyl)-1H-pyrazole-4-carboxylic acid [(S)-1-(3-trifluoromethyl-phenyl)-butyl]-amide],12 nM
2,CC[C@H](NC(=O)c1cnn(-c2ccc(Cl)cc2)c1C)c1ccc(F)c(C(F)(F)F)c1 [1-(4-Chloro-phenyl)-5-methyl-1H-pyrazole-4-carboxylic acid [(S)-1-(4-fluoro-3-trifluoromethyl-phenyl)-propyl]-amide],13 nM
3,CCCC(NC(=O)c1cnn(-c2ccc(F)c(Cl)c2)c1C)c1ccc(S(C)(=O)=O)nc1 (centres unmarked) [1-(3-Chloro-4-fluoro-phenyl)-5-methyl-1H-pyrazole-4-carboxylic acid [1-(6-methanesulfonyl-pyridin-3-yl)-butyl]-amide],71 nM
4,CCCC(NC(=O)c1cnn(-c2ccc(Cl)cc2)c1C)c1cncc(S(=O)(=O)N(C)C)c1 (centres unmarked) [1-(4-Chloro-phenyl)-5-methyl-1H-pyrazole-4-carboxylic acid [1-(5-dimethylsulfamoyl-pyridin-3-yl)-butyl]-amide],4.9 nM
5,CCCC(NC(=O)c1cnn(-c2ccc(Cl)cc2)c1C)c1ccc(S(=O)(=O)CCCO)nc1 (centres unmarked) [1-(4-Chloro-phenyl)-5-methyl-1H-pyrazole-4-carboxylic acid {1-[6-(3-hydroxy-propane-1-sulfonyl)-pyridin-3-yl]-butyl}-amide],86 nM
6,CCCC(NC(=O)c1cnn(-c2ccc(Cl)cc2)c1C)c1ccc(S(=O)(=O)NCCO)nc1 (centres unmarked) [1-(4-Chloro-phenyl)-5-methyl-1H-pyrazole-4-carboxylic acid {1-[6-(2-hydroxy-ethylsulfamoyl)-pyridin-3-yl]-butyl}-amide],97 nM
7,CCCC(NC(=O)c1cnn(-c2ccc(Cl)cc2)c1C)c1cncc(S(=O)(=O)CC)c1 (centres unmarked) [1-(4-Chloro-phenyl)-5-methyl-1H-pyrazole-4-carboxylic acid [1-(5-ethanesulfonyl-pyridin-3-yl)-butyl]-amide],94 nM
8,CCCC(NC(=O)c1cnn(-c2ccc(Cl)cc2)c1C)c1ccnc(S(=O)(=O)NC)c1 (centres unmarked) [1-(4-Chloro-phenyl)-5-methyl-1H-pyrazole-4-carboxylic acid [1-(2-methylsulfamoyl-pyridin-4-yl)-butyl]-amide],2.9 nM
9,CCCC(NC(=O)c1cnn(-c2ccc(Cl)cc2)c1C)c1cncc(S(C)(=O)=O)c1 (centres unmarked) [1-(4-Chloro-phenyl)-5-methyl-1H-pyrazole-4-carboxylic acid [1-(5-methanesulfonyl-pyridin-3-yl)-butyl]-amide],15 nM
10,CCCC(NC(=O)c1cnn(-c2ccc(Cl)cc2)c1C)c1cncc(S(=O)(=O)C2CC2)c1 (centres unmarked) [1-(4-Chloro-phenyl)-5-methyl-1H-pyrazole-4-carboxylic acid [1-(5-cyclopropanesulfonyl-pyridin-3-yl)-butyl]-amide],85 nM
11,CCCC(NC(=O)c1cnn(-c2ccc(Cl)c(F)c2)c1C)c1cncc(S(C)(=O)=O)c1 (centres unmarked) [1-(4-Chloro-3-fluoro-phenyl)-5-methyl-1H-pyrazole-4-carboxylic acid [1-(5-methanesulfonyl-pyridin-3-yl)-butyl]-amide],37 nM
12,C=CCCC[C@H](NC(=O)c1cnn(-c2ccc(Cl)cc2)c1C)c1cccc(C(F)(F)F)c1 [1-(4-Chloro-phenyl)-5-methyl-1H-pyrazole-4-carboxylic acid [(S)-1-(3-trifluoromethyl-phenyl)-hex-5-enyl]-amide],30 nM
13,CCCC(NC(=O)c1cnn(-c2ccc(Cl)cc2)c1C)c1ccnc(S(=O)(=O)CCC(=O)OC)c1 (centres unmarked) [3-[4-(1-{[1-(4-Chloro-phenyl)-5-methyl-1H-pyrazole-4-carbonyl]-amino}-butyl)-pyridine-2-sulfonyl]-propionic acid methyl ester],80 nM
14,CCCC(NC(=O)c1cnn(-c2ccc(Cl)cc2)c1C)c1ccnc(S(=O)(=O)CC)c1 (centres unmarked) [1-(4-Chloro-phenyl)-5-methyl-1H-pyrazole-4-carboxylic acid [1-(2-ethanesulfonyl-pyridin-4-yl)-butyl]-amide],5.7 nM
15,"CC[C@H](NC(=O)c1cnn(-c2ccc(Cl)c(Cl)c2)c1C)c1cccc(Br)c1 [1-(3,4-Dichloro-phenyl)-5-methyl-1H-pyrazole-4-carboxylic acid [(S)-1-(3-bromo-phenyl)-propyl]-amide]",16 nM
16,CCC[C@H](NC(=O)c1cnn(-c2ccc(Cl)cc2)c1CO)c1cccc(C(F)(F)F)c1 [1-(4-Chloro-phenyl)-5-hydroxymethyl-1H-pyrazole-4-carboxylic acid [(S)-1-(3-trifluoromethyl-phenyl)-butyl]-amide],6.5 nM
17,CCCC(NC(=O)c1cnn(-c2ccc(Cl)cc2)c1C)c1cncc(S(=O)(=O)NC)c1 (centres unmarked) [1-(4-Chloro-phenyl)-5-methyl-1H-pyrazole-4-carboxylic acid [1-(5-methylsulfamoyl-pyridin-3-yl)-butyl]-amide],4.1 nM
18,"Cc1c(C(=O)N[C@@H](C)c2cccc3ccccc23)cnn1-c1ccc(Cl)c(Cl)c1 [1-(3,4-Dichloro-phenyl)-5-methyl-1H-pyrazole-4-carboxylic acid ((S)-1-naphthalen-1-yl-ethyl)-amide]",54 nM
19,CCCC(NC(=O)c1cnn(-c2ccc(Cl)cc2)c1C)c1cncc(Br)c1 (centres unmarked) [1-(4-Chloro-phenyl)-5-methyl-1H-pyrazole-4-carboxylic acid [1-(5-bromo-pyridin-3-yl)-butyl]-amide],4.1 nM
20,"C=CCC[C@H](NC(=O)c1cnn(-c2ccc(Cl)c(Cl)c2)c1C)c1cccc(Br)c1 [1-(3,4-Dichloro-phenyl)-5-methyl-1H-pyrazole-4-carboxylic acid [(S)-1-(3-bromo-phenyl)-pent-4-enyl]-amide]",41 nM
21,CC[C@H](NC(=O)c1cnn(-c2ccc(Cl)cc2)c1C)c1ccnc(S(C)(=O)=O)c1 [1-(4-Chloro-phenyl)-5-methyl-1H-pyrazole-4-carboxylic acid [(S)-1-(2-methanesulfonyl-pyridin-4-yl)-propyl]-amide],29 nM
22,CCC[C@H](NC(=O)c1cnn(-c2ccc(Cl)cc2)c1C)c1cccc(Br)c1 [1-(4-Chloro-phenyl)-5-methyl-1H-pyrazole-4-carboxylic acid [(S)-1-(3-bromo-phenyl)-butyl]-amide],28 nM
23,CC[C@H](NC(=O)c1cnn(-c2ccc(Cl)cc2)c1C)c1cncc(Br)c1 [1-(4-Chloro-phenyl)-5-methyl-1H-pyrazole-4-carboxylic acid [(S)-1-(5-bromo-pyridin-3-yl)-propyl]-amide],20 nM
